Drawing on paper PMC11678531, “C118P Suppresses Gastric Cancer Growth via Promoting Autophagy–Lysosomal Degradation of RAB1A” (Pharmaceutics, 2024), this text covers Kd for one molecule.

The experiment concerns the target T1, RAB1A (Human Rab1a Recombinant protein) (Homo sapiens, UniProt P62820).
T1 construct: commercial recombinant protein (Shanghai Chunmai Biotechnology); RED-NHS labelled
Put plainly: microscale thermophoresis. The format is binding. The conditions noted are these: RED-NHS labelled protein; room temperature; C118P 0.61 pM to 20 µM. (In general: Microscale thermophoresis detects binding through changes in fluorescence in a small temperature gradient.)

T1 sequence (P62820 2-205): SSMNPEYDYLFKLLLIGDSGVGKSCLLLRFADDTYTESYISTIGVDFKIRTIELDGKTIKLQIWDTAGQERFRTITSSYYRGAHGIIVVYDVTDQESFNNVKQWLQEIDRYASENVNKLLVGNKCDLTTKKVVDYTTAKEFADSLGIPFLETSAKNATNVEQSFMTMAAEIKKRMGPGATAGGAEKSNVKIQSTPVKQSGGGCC

Take `COc1cc(OC)cc(-c2nc[nH]c2-c2ccc(OC)c(OP(=O)(O)O)c2)c1` [C118P]: the Kd – broadly, a measure of binding affinity in units of concentration – was found to be 3.13 nM.
